In PMC10913484, “Hydroxyhexylitaconic acids as potent IMP-type metallo-β-lactamase inhibitors for controlling carbapenem resistance in Enterobacterales” (Microbiology Spectrum, 2024):
In brackets after ≈: the same amount, converted by molar mass. Read-outs that look alike come from different tables or passages of the source.

Columns and labels:
E. coli NUBL-24 (IMP-1) = assay: Susceptibility test, clinical isolate; type: cell-based; settings: Escherichia coli
Method: (§1) Susceptibility testing, based on the microdilution method, was performed according to the guidelines of the Clinical and Laboratory Standards Institute ([36]).

[1] = system: K. pneumoniae AR0076 (VIM-1); assay: Susceptibility test, clinical isolate; type: cell-based; settings: Klebsiella pneumoniae
Method: as §1

[2] = system: K. pneumoniae NUBL-8 (IMP-1); assay: Susceptibility test, clinical isolate; type: cell-based; settings: Klebsiella pneumoniae
Method: as §1

[3] = system: K. pneumoniae AR0034 (IMP-4); assay: Susceptibility test, clinical isolate; type: cell-based; settings: Klebsiella pneumoniae, K. pneumoniae AR0034 (IMP-4)
Method: as §1

E. coli NUBL-22 (IMP-6) = assay: Susceptibility test, clinical isolate; type: cell-based; settings: Escherichia coli
Method: as §1

E. coli 465 (IMP-1) = assay: Susceptibility test, clinical isolate; type: cell-based; settings: Escherichia coli
Method: as §1

[4] = system: E. cloacae NUBL-5 (IMP-1); assay: Susceptibility test, clinical isolate; type: cell-based; settings: Enterobacter cloacae
Method: as §1

[5] = system: IMP-1-producing E. coli NUBL-24; assay: Time-killing assay; type: cell-based; settings: 12-h incubation
Method: The initial density of IMP-1-producing E. coli NUBL-24 (MPM MIC, 8 µg/mL) was adjusted to approximately 5 × 10^6 colony-forming units (cfu)/mL. Either MPM (1 µg/mL) or 9-HHIA/10-HHIA (50 µg/mL) alone or a combination of the two was added to the bacterial solution, and then incubation was performed at 37°C. LB broth containing bacteria alone was used as a control. At 0, 2, 4, 8, and 12 h after adding the agents, an aliquot of the bacterial culture was removed, diluted, and spotted on LB agar plates to count the viable bacterial cells. The detection limit was set at 333 cfu/mL.

IMP-1 [6] = biological target: T1, IMP-1 (Serratia marcescens, UniProt P52699); type: binding; settings: DSF; control protein 52.5°C
T1 construct: made in house
Method: The DSF assay was performed using the Protein Thermal Shift Dye Kit (Thermo Fisher Scientific) and StepOnePlus Real-Time PCR Systems (Applied Biosystems) as follows: 2 µL of IMP-1 enzyme (100 µM), 1 µL of EDTA or HHIA solution (5 mM), 2.5 µL of diluted Protein Thermal Shift Dye (32×), 5 µL of Protein Thermal Shift buffer, and 9.5 µL of water were mixed in a test tube and incubated for 15 min at 4°C. Four replicates of each sample were performed. The fluorescence was monitored at 0.7°C increments from 4°C to 99°C. The relative fluorescence units were fitted with the Boltzmann equation using the TSA-CRAFT software to determine the melting point (Tm) ([47]).

E. coli DH5α pBC-NDM-1 = assay: Susceptibility test (microdilution), transformant; type: cell-based; settings: for MPM MIC: E. coli DH5α pBC-NDM-1
Method: as §1

E. coli DH5α pCL-SMB-1 = assay: Susceptibility test (microdilution), transformant; type: cell-based; settings: E. coli DH5α pCL-SMB-1
Method: as §1

E. coli DH5α pBC-IMP-1 = assay: Susceptibility test (microdilution), transformant; type: cell-based; settings: Escherichia coli, read-out: MPM MIC, +agent 100 μg/mL
Method: as §1

NDM-1 = biological target: T2, NDM-1 (Klebsiella pneumoniae, UniProt C7C422); assay: In vitro inhibition assay (IPM hydrolysis); type: biochemical; settings: even at high doses (100 µM)
T2 construct: made in house
Method: (§2) MBLs were incubated with HHIAs in 20 mM HEPES buffer (pH 7.5) containing 200 mM NaCl and 50 µg/mL BSA at 30°C for 5 min. IPM was added at a concentration of 100 µM, and the rate of IPM hydrolysis was monitored at 297 nm. The initial velocity (v0) rates were plotted against HHIA’s logarithmic concentrations, and the data were fitted to a four-parameter variable slope to obtain the half-maximal inhibitor concentration (IC50) values using GraphPad Prism 9 software (GraphPad Software). The inhibition constant (Ki) was determined as follows: v0 was measured after varying the concentrations of IPM and HHIAs, and inverse v0 (1/v0) was plotted against the inverse IPM concentration [1/(IPM)]. Lineweaver–Burk plots were created to obtain Ki values under the competitive inhibition model using the SigmaPlot 14 suite (Hulinks).

IMP-1 [7] = biological target: T1, IMP-1; assay: In vitro inhibition assay (IPM hydrolysis); type: biochemical
Method: as §2

VIM-2 = biological target: T3, VIM-2 (Escherichia coli, UniProt Q5U7L7); assay: In vitro inhibition assay (IPM hydrolysis); type: biochemical
T3 construct: made in house
Method: as §2

SMB-1 = assay: In vitro inhibition assay (IPM hydrolysis); type: biochemical; settings: even at high doses (100 µM)
Method: as §2

IMP-6 = biological target: T4, IMP-6 (Serratia marcescens, UniProt P52699, S214G); assay: In vitro inhibition assay (IPM hydrolysis); type: biochemical
T4 construct: made in house
Method: as §2

[8] = +HHIA 6.25 µg/mL, read-out: IPM MIC
[9] = +HHIA 6.25 μg/mL, read-out: MPM MIC
[10] = +HHIA 25 µg/mL, read-out: IPM MIC
[11] = +HHIA 25 μg/mL, read-out: MPM MIC
[12] = +HHIA 100 µg/mL, read-out: IPM MIC
[13] = +HHIA 100 μg/mL, read-out: MPM MIC

T1 sequence (P52699 19-246, looked up, species assumed): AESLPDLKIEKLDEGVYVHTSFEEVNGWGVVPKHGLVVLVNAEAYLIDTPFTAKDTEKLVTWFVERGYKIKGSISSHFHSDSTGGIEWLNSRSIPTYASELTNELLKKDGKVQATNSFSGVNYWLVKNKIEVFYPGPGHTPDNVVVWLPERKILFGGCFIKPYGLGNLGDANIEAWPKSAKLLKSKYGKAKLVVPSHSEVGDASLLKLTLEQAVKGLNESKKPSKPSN
T4 sequence (P52699 19-246 S214G): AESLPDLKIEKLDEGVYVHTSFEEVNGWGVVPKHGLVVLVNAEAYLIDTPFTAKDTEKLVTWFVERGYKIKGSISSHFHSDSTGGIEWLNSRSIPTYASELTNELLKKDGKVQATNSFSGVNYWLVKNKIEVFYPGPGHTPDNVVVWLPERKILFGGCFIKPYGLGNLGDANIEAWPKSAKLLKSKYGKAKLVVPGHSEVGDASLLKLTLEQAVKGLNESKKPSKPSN
T2 sequence (C7C422 29-270 limits assumed): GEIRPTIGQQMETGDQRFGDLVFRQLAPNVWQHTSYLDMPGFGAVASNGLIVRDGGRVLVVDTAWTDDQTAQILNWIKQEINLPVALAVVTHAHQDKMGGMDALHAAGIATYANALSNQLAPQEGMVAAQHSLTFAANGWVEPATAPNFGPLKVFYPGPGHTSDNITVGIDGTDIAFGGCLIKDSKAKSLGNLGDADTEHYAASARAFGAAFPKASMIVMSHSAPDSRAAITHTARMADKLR

## C=C(C(=O)O)C(CCCCC(C)O)C(=O)O (stereo not shown) [9-HHIA, 9-hydroxyhexylitaconic acid]
E. coli NUBL-24 (IMP-1); +HHIA 6.25 µg/mL, E. coli NUBL-24 (IMP-1), read-out: IPM MIC
  MIC: 4 µg/mL (≈ 17.4 µM)
E. coli NUBL-24 (IMP-1); +HHIA 6.25 μg/mL, E. coli NUBL-24 (IMP-1), read-out: MPM MIC
  MIC: 4 µg/mL (≈ 17.4 µM)
E. coli NUBL-24 (IMP-1); +HHIA 25 µg/mL, E. coli NUBL-24 (IMP-1), read-out: IPM MIC
  MIC: 2 µg/mL (≈ 8.69 µM)
E. coli NUBL-24 (IMP-1); +HHIA 25 μg/mL, E. coli NUBL-24 (IMP-1), read-out: MPM MIC
  MIC: 0.5 µg/mL (≈ 2.17 µM)
E. coli NUBL-24 (IMP-1); +HHIA 100 µg/mL, E. coli NUBL-24 (IMP-1), read-out: IPM MIC
  MIC: 1 µg/mL (≈ 4.34 µM)
E. coli NUBL-24 (IMP-1); read-out: MPM MIC
  MIC: 0.125 µg/mL (≈ 0.543 µM)
[1]; [8]
  MIC: 32 µg/mL (≈ 139 µM)
[1]; [9]
  MIC: 32 µg/mL (≈ 139 µM)
[1]; [10]
  MIC: 32 µg/mL (≈ 139 µM)
[1]; [11]
  MIC: 32 µg/mL (≈ 139 µM)
[1]; [12]
  MIC: 32 µg/mL (≈ 139 µM)
[1]; [13]
  MIC: 32 µg/mL (≈ 139 µM)
[2]; [8]
  MIC: 2 µg/mL (≈ 8.69 µM)
[2]; [9]
  MIC: 16 µg/mL (≈ 69.5 µM)
[2]; [10]
  MIC: 4 µg/mL (≈ 17.4 µM)
[2]; [11]
  MIC: 4 µg/mL (≈ 17.4 µM)
[2]; [12]
  MIC: 1 µg/mL (≈ 4.34 µM)
[2]; [13]
  MIC: 0.5 µg/mL (≈ 2.17 µM)
[3]; [8]
  MIC: 4 µg/mL (≈ 17.4 µM)
[3]; [9]
  MIC: 8 µg/mL (≈ 34.7 µM)
[3]; [10]
  MIC: 2 µg/mL (≈ 8.69 µM)
[3]; [11]
  MIC: 2 µg/mL (≈ 8.69 µM)
[3]; [12]
  MIC: 0.5 µg/mL (≈ 2.17 µM)
[3]; [13]
  MIC: 0.25 µg/mL (≈ 1.09 µM)
E. coli NUBL-22 (IMP-6); [8]
  MIC: 2 µg/mL (≈ 8.69 µM)
E. coli NUBL-22 (IMP-6); [9]
  MIC: 16 µg/mL (≈ 69.5 µM)
E. coli NUBL-22 (IMP-6); [10]
  MIC: 1 µg/mL (≈ 4.34 µM)
E. coli NUBL-22 (IMP-6); [11]
  MIC: 16 µg/mL (≈ 69.5 µM)
E. coli NUBL-22 (IMP-6); [12]
  MIC: 0.5 µg/mL (≈ 2.17 µM)
E. coli NUBL-22 (IMP-6); [13]
  MIC: 4 µg/mL (≈ 17.4 µM)
E. coli 465 (IMP-1); [8]
  MIC: 16 µg/mL (≈ 69.5 µM)
E. coli 465 (IMP-1); [9]
  MIC: 32 µg/mL (≈ 139 µM)
E. coli 465 (IMP-1); [10]
  MIC: 8 µg/mL (≈ 34.7 µM)
E. coli 465 (IMP-1); [11]
  MIC: 8 µg/mL (≈ 34.7 µM)
E. coli 465 (IMP-1); [12]
  MIC: 2 µg/mL (≈ 8.69 µM)
E. coli 465 (IMP-1); [13]
  MIC: 0.5 µg/mL (≈ 2.17 µM)
[4]; [8]
  MIC: 8 µg/mL (≈ 34.7 µM)
[4]; [9]
  MIC: 16 µg/mL (≈ 69.5 µM)
[4]; [10]
  MIC: 4 µg/mL (≈ 17.4 µM)
[4]; [11]
  MIC: 16 µg/mL (≈ 69.5 µM)
[4]; [12]
  MIC: 2 µg/mL (≈ 8.69 µM)
[4]; [13]
  MIC: 8 µg/mL (≈ 34.7 µM)
[5]; 50 µg/mL alone
  Time-kill: effect on growth, HHIA alone: did not affect the growth
[5]; MPM 1 µg/mL + HHIA 50 µg/mL
  Time-kill: MPM-HHIA combination: did not permit the re-growth
IMP-1 [6]
  Melting temperature (Tm) of treated IMP-1: 54.9 °C
E. coli DH5α pBC-NDM-1; +agent 25 μg/mL
  MPM MIC: 64 µg/mL
E. coli DH5α pBC-NDM-1; +agent 100 μg/mL
  MPM MIC: 64 µg/mL
E. coli DH5α pBC-NDM-1; Escherichia coli, read-out: MPM MIC
  MIC: 64 µg/mL (≈ 278 µM)
E. coli DH5α pCL-SMB-1; +agent 25 μg/mL
  MPM MIC: 32 µg/mL
E. coli DH5α pCL-SMB-1; +agent 100 μg/mL
  MPM MIC: 32 µg/mL
E. coli DH5α pBC-IMP-1
  MIC: 0.125 µg/mL (≈ 0.543 µM)
NDM-1
  Inhibition of hydrolyzing activity of NDM-1: did not inhibit
IMP-1 [7]
  IC50: 50.5 µM
  Ki: 11.1 µM
IMP-1 [7]; Lineweaver–Burk plots
  Inhibition mode for IMP-1: competitive inhibitors
VIM-2
  Inhibitory activity against VIM-2: moderate
SMB-1
  Inhibition of hydrolyzing activity of SMB-1: did not inhibit
IMP-6
  Ki: 27.8 µM
